The text below walks through data of patent US5403717A, “Diagnosis of premalignant or malignant conditions of human secretory epithelia” (Pacific Northwest Research, priority 1992, dated 1995).

Assay [1] has as its target T1, β1→3N-acetylglucosaminyltransferase (Homo sapiens, UniProt Q9BYG0).
T1 construct: solubilized from a 27,000 x g membrane pellet of SW403 cells by 0.2% Triton X-100; endogenous in cells; host or cells: SW403 cells (human colonic adenocarcinoma), 0.2% Triton X-100 soluble membrane fraction
T1 sequence (Q9BYG0 1-378): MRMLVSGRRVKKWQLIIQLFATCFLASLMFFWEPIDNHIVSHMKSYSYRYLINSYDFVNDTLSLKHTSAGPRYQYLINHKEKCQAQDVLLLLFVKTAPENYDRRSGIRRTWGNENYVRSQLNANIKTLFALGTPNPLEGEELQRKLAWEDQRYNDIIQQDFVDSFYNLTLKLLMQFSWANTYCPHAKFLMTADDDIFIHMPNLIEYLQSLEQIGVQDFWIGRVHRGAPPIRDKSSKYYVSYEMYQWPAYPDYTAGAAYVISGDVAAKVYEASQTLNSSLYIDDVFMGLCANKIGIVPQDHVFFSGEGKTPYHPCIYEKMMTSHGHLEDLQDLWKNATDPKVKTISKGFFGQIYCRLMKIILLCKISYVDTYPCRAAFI
As to the kind of experiment: β1→3N-acetylglucosaminyltransferase assay with Triton X-100 solubilized enzyme from SW403 cells. Format: biochemical. As to conditions: for effect of removal from the reaction mixture on activity (in words): component removed from complete system; for β1-3N-acetylglucosaminyltransferase activity, named component omitted from complete system: component removed; for Effect of detergents on β1-3N-acetylglucosaminyltransferase activity: detergent added at 0.3% final concentration, 0.05% Triton X-100 present from enzyme, acceptor lactosylceramide; for fold less activity on substitution of Mn++: 10 mM final concentration, compared to Mn++; for β1-3N-acetylglucosaminyltransferase activity, Mn++ replaced by the named agent: plus agent at 10 mM final. How it is done:
(§1) The labelled product was extracted into the lower phase of a Folch extraction (J. Biol. Chem., 191, 819-831), dried by an N2 stream, and dissolved in 20 μl of CHCl3 :CH3 OH (2:1). An aliquot, 10 μl was spotted on a HPTLC plate (Merck) and developed in a solvent composed of CHCl3 :CH3 OH:H2 O (60:35:8). The labelled glycolipids were located by autoradiography, scraped, and quantitated in a liquid scintillation counter.

Assay [2] relates to β1→3N-acetylglucosaminyltransferase. Described as above. Format: biochemical, human. To be noted: for Substrate specificity of β1-3N-acetylglucosaminyltransferase: transfer of GlcNAc to acceptor: 40 ug of each acceptor, ND = none detected. How it is done: as §1
The target of assay [3] is T2, β1-3galactosyltransferase (Homo sapiens, UniProt Q9Y2C3).
T2 construct: catalyzed by a 0.2% Triton X-100 soluble fraction from SW403 cells; endogenous in cells; host or cells: SW403 cells (human colonic adenocarcinoma), 0.2% Triton X-100 soluble fraction
T2 sequence (Q9Y2C3 1-310): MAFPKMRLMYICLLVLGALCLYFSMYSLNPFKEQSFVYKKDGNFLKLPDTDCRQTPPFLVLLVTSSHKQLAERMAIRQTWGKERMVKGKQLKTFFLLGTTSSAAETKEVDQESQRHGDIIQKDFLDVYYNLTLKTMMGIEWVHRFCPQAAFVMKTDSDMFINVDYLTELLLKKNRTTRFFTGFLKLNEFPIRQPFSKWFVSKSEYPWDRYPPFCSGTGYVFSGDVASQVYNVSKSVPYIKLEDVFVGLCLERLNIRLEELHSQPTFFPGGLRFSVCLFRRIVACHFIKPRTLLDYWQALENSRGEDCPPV
As to the kind of experiment: Effect of α-lactalbumin on β1-3galactosyltransferase of a 0.2% Triton X-100 soluble fraction from SW403 cells. Format: biochemical. As to conditions: 30 μg acceptor, 0.2 mg solubilized protein. How it is done:
The effect of increasing α-lactalbumin on the transfer of galactose to glucosylceramide, +--+, Lc3 forming nLc4, o--o, and Lc3 forming Lc4, x--x, catalyzed by a 0.2% Triton X-100 soluble fraction from SW403 cells is shown. The assays were conducted in the presence of 30 μg of the indicated acceptor and 0.2 mg of solubilized protein.
Synthesis of type 1 and 2 chain structures Lc4 and nLc4 are catalyzed by β1-3 and β1-4galactosyltransferases, respectively, competing for Lc3. A β1-4-galactosyltransferase responsible for transfer of Gal to Lc3 in human plasma was previously reported to be lactose synthetase A protein which was also involved in the synthesis of lactosylceramide (J. Biochem., 92, 1123-1127 (1982)). The effect of increasing α-lactalbumin on the β1-4galactosyltransferase activity in SW403 cells is seen with glucosylceramide and Lc3 as acceptors.
The reaction mixtures contained 2.5 μmol HEPES buffer, pH 7.0, 20 μg Lc3, 10 μg deoxycholate, 1 μmol MnCI2, 0.5 μmol CDPcholine, 0.5 μmol galactonolactone, 15 nmol UDP[^14 C]galactose (30,000 cpm/nmol), and 0.1 mg protein in a total volume of 0.1 ml. […] The incorporation of [^14 C]galactose into glycolipid was determined as described above.

As for `C[N+](C)(C)CCOP(=O)(O)OP(=O)([O-])OC[C@H]1O[C@@H](n2ccc(N)nc2=O)[C@H](O)[C@@H]1O` [CDPcholine], the “effect of removal from the reaction mixture on activity (in words)” value in assay [1] is on record as “significant loss of activity”. In addition, in assay [1] (complete system gives 76.0), the “β1-3N-acetylglucosaminyltransferase activity, named component omitted from complete system” value worked out at 65.3 pmol/hr/mg protein.
Take `C[C@H](CCC(=O)NCCC[N+](C)(C)CC(O)CS(=O)(=O)[O-])[C@H]1CC[C@H]2[C@@H]3[C@H](O)C[C@@H]4C[C@H](O)CC[C@]4(C)[C@H]3C[C@H](O)[C@]12C` (some centres unmarked) [CHAPSO]: the “Effect of detergents on β1-3N-acetylglucosaminyltransferase activity” value (“Effect of detergents” for short) in assay [1] came out at 54.5 pmol/hr/mg protein.
As to `[Ca+2]` [Ca^++], the “fold less activity on substitution of Mn++” value in assay [1] is 13 fold. The “β1-3N-acetylglucosaminyltransferase activity, Mn++ replaced by the named agent” value in assay [1] (complete system gives 76.0) is on record as 6.0 pmol/hr/mg protein.
For the molecule `C[C@H](CCC(=O)O)[C@H]1CC[C@H]2[C@@H]3CC[C@@H]4C[C@H](O)CC[C@]4(C)[C@H]3C[C@H](O)[C@]12C` [Deoxycholate], the “Effect of detergents” value in assay [1] is recorded as 67.5 pmol/hr/mg protein.
`CC(=O)N[C@H]1C(O)O[C@H](CO)[C@@H](O)[C@@H]1O` (some centres unmarked) [GlcNAc]: the “β1-3N-acetylglucosaminyltransferase activity, GlcNAc added to complete system” value in assay [1] (GlcNAc 10 mM final, complete system gives 76.0) turned out to be 80.3 pmol/hr/mg protein. Moreover, the “effect on transfer of GlcNAc to lactosylceramide (in words)” value in assay [1] (agent at 10 mM final concentration (EDTA in place of Mn++; GlcNAc added)) was “only slight stimulation of the activity”.
For `[Mg+2]` [Mg^++], in assay [1], the “fold less activity on substitution of Mn++” value was determined as 21 fold. Further, in assay [1] (complete system gives 76.0), the “β1-3N-acetylglucosaminyltransferase activity, Mn++ replaced by the named agent” value stood at 3.6 pmol/hr/mg protein.
Turning to Lactotetraosylceramide [Lc4], in assay [2], the “Substrate specificity of β1-3N-acetylglucosaminyltransferase: transfer of GlcNAc to acceptor” value is 27 pmol/hr/mg protein. The “transfer of GlcNAc to acceptor (in words)” value in assay [2] (SW403 cell enzyme, lacto-series glycolipid acceptors) is “detectable but is much lower”.
Take Triton X-100: in assay [1], the “Effect of detergents” value is 67.9 pmol/hr/mg protein.
lactosylceramide: in assay [2], the “Substrate specificity of β1-3N-acetylglucosaminyltransferase: transfer of GlcNAc to acceptor” value was 76 pmol/hr/mg protein. In assay [1], the “effect of removal from the reaction mixture on activity (in words)” value is listed as “greatly diminished the activity”. Further, the “β1-3N-acetylglucosaminyltransferase activity, named component omitted from complete system” value in assay [1] (complete system gives 76.0) is recorded as 8.3 pmol/hr/mg protein.

B1: α-lactalbumin: protein modifier of lactose synthetase A protein (β1-4galactosyltransferase) (protein, UniProt P00709 20-142, looked up)
Alpha-lactalbumin: KQFTKCELSQLLKDIDGYGGIALPELICTMFHTSGYDTQAIVENNESTEYGLFQISNKLWCKSSQVPQSRNICDISCDKFLDDDITDDIMCAKKILDIKGIDYWLAHKALCTEKLEQWLCEKL
In the case of B1, the “effect of α-lactalbumin on β1-3galactosyltransferase with Lc3 as acceptor (forming Lc4)” value in assay [3] is “Slight activation”.
